How the values were obtained:
Plasmodium falciparum = test: Antimalarial activity against Plasmodium falciparum infected in mouse assessed as survival at 0.5 mg/kg, po measured after 40 days relative to control; format: functional; details: time 40 day
MCF7 = test: Synergistic antiproliferative activity against human MCF7 cells assessed as inhibition of cell growth; format: functional; design: scale not given: the % may be the effect or the level left
DLD-1 = test: Synergistic antiproliferative activity against human DLD-1 cells assessed as inhibition of cell growth; format: functional, cell-based
HCT-116 = test: Synergistic antiproliferative activity against human HCT-116 cells assessed as inhibition of cell growth; format: functional, cell-based
[1] = Induction of apoptosis in rat AY-27 cells at 10 uM by Annexin V-PE and 7AAD staining based flow cytometry; format: functional
[2] = Antiproliferative activity against rat AY-27 cells assessed as inhibition of cell growth incubated for 3 hrs by MTT assay; format: functional; design: scale not given: the % may be the effect or the level left
Y79 = test: Antiproliferative activity against human Y79 cells assessed as inhibition of cell growth incubated for 48 hrs by MTT assay; format: functional, cell-based; details: Y79, 48 h
[3] = Antiproliferative activity against human WERI-Rb-1 cells assessed as inhibition of cell growth incubated for 48 hrs by MTT assay; format: functional, cell-based; details: WERI-Rb-1, 48 h
[4] = biological target: Mitogen-activated protein kinase 8 (Homo sapiens) (UniProt P45983); test: Activation of JNK in human CMT12 cells; format: cell-based
HSC-2 = test: Synergistic cytotoxicity against human HSC-2 cells; format: functional, cell-based

Chain of Mitogen-activated protein kinase 8 (Homo sapiens) (P45983 whole entry): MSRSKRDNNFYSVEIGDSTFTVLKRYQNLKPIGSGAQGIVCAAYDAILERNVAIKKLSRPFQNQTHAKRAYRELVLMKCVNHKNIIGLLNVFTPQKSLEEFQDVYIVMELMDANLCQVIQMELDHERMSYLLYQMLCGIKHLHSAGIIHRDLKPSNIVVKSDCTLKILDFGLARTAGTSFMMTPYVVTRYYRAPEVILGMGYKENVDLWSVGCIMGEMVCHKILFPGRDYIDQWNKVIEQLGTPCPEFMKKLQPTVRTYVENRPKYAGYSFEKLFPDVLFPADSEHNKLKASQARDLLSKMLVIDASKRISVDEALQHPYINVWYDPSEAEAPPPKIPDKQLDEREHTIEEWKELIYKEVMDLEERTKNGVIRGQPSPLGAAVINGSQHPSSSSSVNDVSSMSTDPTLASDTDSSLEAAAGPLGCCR

Structure (SMILES)	Activity (Plasmodium falciparum) [%]	Activity (MCF7) [%]	IC50 (DLD-1) [µM]	IC50 (HCT-116) [µM]	Activity [1] [%]	Activity [2] [%]	IC50 (Y79) [µM]	IC50 [3] [µM]	Activity [4] [%]	IC50 (HSC-2) [µM]
C[C@@H]1CC[C@H]2[C@@H](C)C(=O)O[C@@H]3O[C@@]4(C)CC[C@@H]1[C@]32OO4 [ARTEMISININ]	100	–	–	–	–	–	–	–	–	–
COc1cc(/C=C/C(=O)CC(=O)/C=C/c2ccc(O)c(OC)c2)ccc1O [CURCUMIN]	–	65.92	10	10	36	85	30	25	30	3.1
Oc1ccc(/C=C/c2cc(O)cc(O)c2)cc1 [RESVERATROL]	–	–	–	–	–	–	–	–	–	3.1
